In assay [1] the test system is PC-3 Cell line. Put plainly: MTT cell proliferation assay, PC-3. Particulars: Homo sapiens, PC-3, 120 h, 5 days. The class given is cell-based. The procedure:
(§1) Human breast cancer cell lines MDAMB231, MFC-7 and human prostate carcinoma cell line PC-3 were obtained from European Collection of Cell Cultures (ECACC). Cells were grown in […] medium supplemented with 10% fetal bovine serum (FBS), penicillin (100 units/ml), streptomycin (100 μg/ml), L-glutamine (0.3 mg/ml), sodium pyruvate ([…]), and NaHCO3 (2 mg/ml). Cells were grown in CO2 incubator (Thermocon Electron Corporation, USA) at 37° C. in an atmosphere of 95% air and 5% CO2 with 98% humidity. Different molecules were dissolved in DMSO and were delivered to cell cultures in complete medium.
(§2) MTT assay was done to determine the viability of the cells and was done as described previously (Kumar et al, 2013). Briefly, 6×10^3 were seeded in 96 well plates and were treated with different concentrations of different molecules for 5 days. 20 μl of MTT dye (2.5 mg/ml) was added 3 h before the termination of the experiment. Formazen crystals were dissolved in 150 μl of DMSO and OD was measured at 570 nm.
In general terms: Tetrazolium assays rely on reduction of a dye to a coloured formazan, in cell work by metabolically active cells.

For assay [2], the target named is PI3K alpha (Homo sapiens, UniProt P42336). Put plainly: PI3K-α assay (ADP-Glo enzyme inhibition). The class given is biochemical. Particulars: at 500 nm; read-out: In vitro PI3K α % of inhibition. In a few lines:
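ADP-Glo read-out after an 80 min reaction with 0.01 mM ATP and 0.05 mM diC8 PIP2 in 12.5 mM glycine-NaOH pH 8.5, 50 mM KCl, 2.5 mM MgCl2, 1 mM DTT, 0.05% CHAPS. Luminescence read after 40 min ADP-Glo reagent and 40 min detection steps.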
(ADP-Glo turns the ADP formed in a reaction into a luminescent signal.)

Assay [3] deals with MCF-7 Cell line. Put plainly: MTT cell proliferation assay, MCF-7. Format: cell-based. To be noted: Homo sapiens, MCF7, 120 h, 5 days. On the procedure:
as §1, §2

In assay [4] the test system is MDA-MB231 Cell line. Put plainly: MTT cell proliferation assay, MDA-MB231. The class given is cell-based. Particulars: Homo sapiens, MDA-MB-231, 120 h, 5 days. On the procedure: as §1, §2

The values below come from patent US9951040B2, “1,3,5 -triazine based PI3K inhibitors as anticancer agents and a process for the preparation thereof” (Council of Scientific and Industrial Research, priority 2014, dated 2018).

As usually defined, the inhibition is the drop in the measured response relative to a control, in per cent.

Chain of PI3K alpha (P42336 whole entry, species assumed): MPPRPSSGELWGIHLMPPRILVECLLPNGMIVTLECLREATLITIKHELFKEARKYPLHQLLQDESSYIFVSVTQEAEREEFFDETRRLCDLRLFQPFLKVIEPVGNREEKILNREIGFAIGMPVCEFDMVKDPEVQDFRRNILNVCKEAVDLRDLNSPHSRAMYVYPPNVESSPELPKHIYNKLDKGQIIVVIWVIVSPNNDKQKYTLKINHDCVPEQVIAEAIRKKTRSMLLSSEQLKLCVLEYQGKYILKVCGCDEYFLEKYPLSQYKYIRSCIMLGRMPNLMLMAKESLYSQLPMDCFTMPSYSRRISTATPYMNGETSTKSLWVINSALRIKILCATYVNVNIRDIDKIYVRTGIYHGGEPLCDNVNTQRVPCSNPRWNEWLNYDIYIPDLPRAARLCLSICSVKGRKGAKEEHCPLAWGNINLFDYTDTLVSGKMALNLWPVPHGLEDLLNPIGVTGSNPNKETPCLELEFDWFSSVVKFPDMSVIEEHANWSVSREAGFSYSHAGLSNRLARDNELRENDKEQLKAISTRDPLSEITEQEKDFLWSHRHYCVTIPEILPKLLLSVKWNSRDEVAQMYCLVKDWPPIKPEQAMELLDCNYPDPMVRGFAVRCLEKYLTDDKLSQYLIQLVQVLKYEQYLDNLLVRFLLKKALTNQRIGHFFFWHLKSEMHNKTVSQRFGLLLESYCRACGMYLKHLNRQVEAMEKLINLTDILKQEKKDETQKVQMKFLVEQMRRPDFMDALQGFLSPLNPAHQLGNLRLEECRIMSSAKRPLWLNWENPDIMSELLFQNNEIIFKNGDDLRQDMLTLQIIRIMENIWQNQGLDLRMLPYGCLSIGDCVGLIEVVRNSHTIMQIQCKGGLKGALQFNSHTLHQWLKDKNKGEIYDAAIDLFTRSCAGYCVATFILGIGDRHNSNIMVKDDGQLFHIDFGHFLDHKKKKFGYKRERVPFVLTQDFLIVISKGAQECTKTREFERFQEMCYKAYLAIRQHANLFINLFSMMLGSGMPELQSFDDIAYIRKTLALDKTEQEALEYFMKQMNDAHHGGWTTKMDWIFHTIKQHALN
Chain of PI3K alpha (P27986 whole entry partner, species assumed): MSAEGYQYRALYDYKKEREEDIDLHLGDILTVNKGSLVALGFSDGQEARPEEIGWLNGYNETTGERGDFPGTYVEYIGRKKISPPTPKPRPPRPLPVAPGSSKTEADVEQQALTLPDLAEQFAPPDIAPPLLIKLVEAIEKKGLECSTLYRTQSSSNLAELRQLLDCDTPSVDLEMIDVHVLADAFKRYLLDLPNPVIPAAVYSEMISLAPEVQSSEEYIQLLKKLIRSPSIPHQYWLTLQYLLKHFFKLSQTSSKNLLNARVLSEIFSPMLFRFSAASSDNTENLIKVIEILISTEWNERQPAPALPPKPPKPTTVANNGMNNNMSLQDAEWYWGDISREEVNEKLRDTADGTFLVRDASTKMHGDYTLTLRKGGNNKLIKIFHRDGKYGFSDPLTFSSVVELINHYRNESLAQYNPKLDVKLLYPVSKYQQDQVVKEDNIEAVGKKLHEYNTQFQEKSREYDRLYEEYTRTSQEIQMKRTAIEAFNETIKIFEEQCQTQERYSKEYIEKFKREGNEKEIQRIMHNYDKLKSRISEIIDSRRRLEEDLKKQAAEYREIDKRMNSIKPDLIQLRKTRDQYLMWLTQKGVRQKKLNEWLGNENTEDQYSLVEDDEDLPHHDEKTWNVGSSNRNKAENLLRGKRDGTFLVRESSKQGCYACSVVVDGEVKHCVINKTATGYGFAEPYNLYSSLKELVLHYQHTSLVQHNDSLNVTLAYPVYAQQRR

For the compound `Fc1ccccc1NC1CCN(c2nc(N3CCOCC3)nc(-n3c(C(F)F)nc4ccccc43)n2)CC1` [1B27, 1-(4-(2-(difluoromethyl)-1H-benzo[d]imidazol-1-yl)-6-morpholino-1,3,5-triazin-2-yl)-N-(2-fluorophenyl)piperidin-4-amine], the inhibition at 10 µM is 30 to 50% in assay [1], above 50% in assay [3] and 30 to 50% in assay [4]. Also, the inhibition at 0.5 µM in assay [2] lay within 50 to 70%.
